“Also recorded” adds a separate entry of the source. Residues, ends and D or L forms follow the SMILES beside them.

The subject of assay [1] is B1 peptide (first extracellular loop of LMP1). The assay is described as follows: ITC of B1/B1.12 interaction. The settings on record: 30 °C, NaHCO3 buffer 0.1 M pH 5.7. Type of assay: binding, Epstein-Barr virus (EBV). As to the method: For ITC, analysis was performed at 30 °C using an isothermal titration calorimeter (VP-ITC, LLC Microcal Inc., Northampton, MA, USA). Peptides were suspended in NaHCO3 buffer (0.1 M, pH 5.7, after 2 hours of sample equilibration) and the reference cell was filled with the same buffer. B1 peptide (0.2 mM) was placed into 250 μL syringe and 1200 μL of B1.12 peptide (0.01 mM) was placed in the titration cell. The peptide solution was injected into the stirred sample cell containing B1.12 peptide in >20 injections (2 μL per injection) by a computer-controlled pump. The injection lasted 10 seconds with an interval of 120 seconds between successive injections. Heat released with each injection was measured (Differential Potential in µCal/sec) by the calorimeter in dynamic correction mode. Control experiments were performed by tittering the B1 peptide into the buffer solution at the same pH and concentrations with and without the B1 peptide, in order to discriminate the interaction process against the dilution of B1 and its possible self-association, respectively.

The test system of the next assay is HT29 cells. The assay is described as follows: Cell cycle analysis, HT29. The settings on record: HT29, 50 µM peptide. Type of assay: cell-based, human. As to the method: (§1) Three cell lines were used: C666-1 which is a native EBV-infected NPC-derived cell line constitutively expressing LMP1, HeLa cells transfected with native vector (Gpt) or harboring the cDNA encoding LMP1, and HT-29 which is a human colon cancer cell line All cells were maintained in RPMI medium 1640 supplemented with 5% (V/V) FBS (Gibco), 4 µg/mL Gentamycine and 2 mM L-glutamine at 37 °C in a humidified atmosphere of 5% CO2. These cell lines were kindly provided by Pr P. Busson (IGR-France).
Cell cycle analysis of C666.1 and HT29 cells was performed using the FXcycleTm PIi/RNnase staining solution (Invitrogen). Briefly, cells (4 × 10^5) were seeded and grown for 24 hours, and then incubated with serum-free RPMI for another 24 hours (starvation) to decrease cell constitutive signaling. After starvation, cells were incubated or not with 50 µM B1.12 peptide (C666.1 and HT29 cells) or control peptide (C666.1 cells) for 48 hours. Following incubation, cells were washed with PBS, trypsinized and centrifuged at 1200 rpm for 5 minutes. The cell pellet was then washed twice with PBS, and cells were fixed with 5 mL of ethanol 70% for 24 hours at 4 °C. […] The data were collected and analyzed by an Attune NxT Flow Cytometer (Thermofisher).

The test system of assay [2] is B1 peptide (first extracellular loop of LMP1). The assay is described as follows: NMR titration of B1/B1.12 interaction. Type of assay: binding, Epstein-Barr virus (EBV). To be noted: H2O/D2O (90:10), 500 MHz. As to the method:
The NMR experiments samples were prepared in 500 μL of H2O/D2O (90:10); using 1 mM of B1 peptide and 21 mM of B1.12 peptide. Titration experiment was also performed with varying the B1:B1.12 proportions (1:1; 3:1; 5:1; 7:1; 9:1). The NMR experiments were recorded on a Bruker spectrometer 500 MHz equipped with a TCI cryoprobe. Acquisition was performed with water suppression with excitation sculpting pulse sequence.

For assay [3], the system named is C666.1 cells. The assay is described as follows: MTT cell viability, C666.1. Type of assay: cell-based. The settings on record: increasing concentration to 200 µM, 48 h. How it is done: as §1
Cells were plated into 96-well plates until 80% confluent and then treated with different concentrations of B1.12 peptide (100, 200, 300 and 400 µM). After 48 hours of incubation, 20 μL MTT (5 mg/mL) were added to each well. After 4 hours, 100 μL dimethyl sulfoxide (DMSO) was added to each well, and absorbance was measured at […] using a Varioskan™ Flash Multimode Reader (Thermofisher Scientific). The percentage of cell viability was calculated using this formula:(OD590 nm of treated cells/OD590 nm of untreated cells) × 100.

Another assay concerns pNFκb (pRelA536). As to the kind of experiment: Western blot pNFκb (pRelA536) in C666.1 cells. Type of assay: cell-based. To be noted: 100 µM peptide, 24 hours, C666.1, Western blot, n = 4 biological replicates. As to the method:
(§2) Cells were cultured at 80% confluency and then incubated with 100 µM B1.12 peptide for 24 hours. Subsequently, cells were washed twice with cold PBS and scrapped in ice-cold RIPA buffer (50 mM Tris pH 7.4, 5 mM EDTA pH 8.0, 150 mM NaCl, 0.1% SDS, 0.5% NaDOC, 0.5% NP 40) supplemented with 5 mM PMSF. After 30 minutes on ice, cells were sonicated, and cell debris were removed by centrifugation at 15,000 rpm at 4 °C for 15 minutes. Proteins were quantified using the Bradford Protein Assay (Bio-Rad) according to the manufacturer’s specifications. Thirty μg of total proteins were separated on 10% SDS–PAGE and transferred to PVDF membrane (Amersham Hybond-P). The membranes were blocked at 4 °C overnight with PBS 0.1% Tween 20 containing 5 mg/mL skimmed milk, prior to be incubated with pAkt (Biotechne, diluted 1/2500) pRelA536 (Biotechne, diluted 1/1000), and Tubulin (Thermofisher, diluted 1/1000) antibodies for 2 hours at room temperature, followed by incubation with anti-rabbit or anti-mouse conjugated to horseradish peroxidase at room temperature for 1 hour. The target protein band was visualized using the enhanced chemiluminescence detection system (Amersham ECL Prime Western Blotting Detection Reagent) and luminescent bands were visualized using the VERSADOC imaging system. Band densities were assessed by Image-J software.
In general terms: A western blot detects proteins with antibodies after separation by electrophoresis.

In a further assay the test system is A20 (TNFAIP3). As to the kind of experiment: RT-qPCR A20 expression in C666.1 cells. The settings on record: B1.12-treated versus untreated C666.1, RT-qPCR normalised to GAPDH, n = 3 biological replicates. Type of assay: cell-based. The source says: Total RNA from C666.1 cells treated or not with B1.12 and control peptides was extracted using TRIzol reagent. cDNA was synthetized using the reverse transcription kit (Invitrogen), and served as a template for detecting A20 gene expression by Real-time quantitative PCR using SYBR Premix Ex Taq (Tli RNase H Plus, Takara) and using CFX96 (Biorad). The housekeeping gene GAPDH was used as an internal control to normalize the expression levels of the gene. The primers used for the amplification of the A20 gene are as follows: forward: 5′-[…]-3′, and reverse: 5′-GGCGAAATTGGAACCTGA TTCCAAACTT-3′. Relative quantification of mRNA expression was performed by the comparative 2−ΔΔct method to calculate the difference between amplifications of A20 and GAPDH. […]

The next assay has as its system pAkt. As to the kind of experiment: Western blot pAkt in C666.1 cells. Type of assay: cell-based. The settings on record: 100 µM peptide, 24 hours, C666.1, Western blot, n = 4 biological replicates. As to the method: as §2
Assay [4] relates to C666.1 cells. The assay is described as follows: Cell cycle analysis, C666.1. Type of assay: cell-based. To be noted: C666.1, 50 µM peptide. How it is done:
Cell cycle analysis of C666.1 and HT29 cells was performed using the FXcycleTm PIi/RNnase staining solution (Invitrogen). Briefly, cells (4 × 10^5) were seeded and grown for 24 hours, and then incubated with serum-free RPMI for another 24 hours (starvation) to decrease cell constitutive signaling. After starvation, cells were incubated or not with 50 µM B1.12 peptide (C666.1 and HT29 cells) or control peptide (C666.1 cells) for 48 hours. Following incubation, cells were washed with PBS, trypsinized and centrifuged at 1200 rpm for 5 minutes. The cell pellet was then washed twice with PBS, and cells were fixed with 5 mL of ethanol 70% for 24 hours at 4 °C. Aliquots of 2 × 10^5 ethanol-fixed cells were then centrifuged for 5 minutes at 450 g, washed with PBS, and then resuspended in Propidium Iodide Reagent and incubated for 30 minutes at room temperature, shielded from light. The data were collected and analyzed by an Attune NxT Flow Cytometer (Thermofisher).

The mark [5] stands for this setting: propidium iodide FACS, 24 h (48 h elsewhere in the source).

As to `CC(C)C[C@H](NC(=O)[C@H](CC(=O)O)NC(=O)[C@H](CC(C)C)NC(=O)[C@@H]1CCCN1C(=O)[C@H](CS)NC(=O)[C@H](C)N)C(=O)N[C@@H](CCCNC(=N)N)C(=O)N[C@@H](CO)C(=O)N1CCC[C@H]1C(=O)N[C@@H](CS)C(=O)NCC(N)=O` [B1.12] (H-ACPLDLRSPCG-NH2; N-terminus and C-terminus assumed), the “number of injections after which exothermic binding reaction ceases” value in assay [1] (2 μL injections of B1 0.2 mM into B1.12 0.01 mM) is “nineteen”. Besides, the “binding to target B1 (ITC)” value in assay [1] (B1 0.2 mM injected into B1.12 0.01 mM) is reported as “ITC profile confirmed the binding of the B1.12 peptide to its target B1 peptide”. Further, the “cell cycle phases versus untreated (in words)” value in the assay with HT29 cells is reported as “the cell cycle phases still unchanged”. The “cells in G0/G1 phase” value in the assay with HT29 cells (setting [5]) was 78.3%; in the assay with C666.1 cells [4] (setting [5]), 73%. Further, the “binding to target B1 (NMR)” value in assay [2] (1 mM B1, 21 mM B1.12) is reported as “bound specifically to its target B1”. Also, the “B1 residues showing chemical shift variation” value in assay [2] (B1:B1.12 titration 1:1 to 9:1) is “Met2, Trp5 and Thr6; also recorded: Met^2, Trp^5 and Thr^6”. Further, the “cell viability (in words)” value in the assay with C666.1 cells [3] was “gradually decreases with increasing peptide concentration”. Moreover, the “pNFκb (pRelA536) expression” value with pNFκb (pRelA536) was “a weak change; also recorded: decreased in B1.12-treated-C666.1 compared to those in the untreated or treated with control peptide”. Also, the A20 expression level entry in the assay on A20 (TNFAIP3) is “the expression of A20 decreased compared to untreated cells; also recorded: the A20 level decreased in the C666.1 cells after B1.12 treatment”. Besides, the pAkt expression result in the assay with pAkt was “low in B1.12-treated-C666.1 compared to those in the untreated or treated with control peptide; also recorded: decreased in B1.12-treated-C666.1 compared to those in the untreated or treated with control peptide more markedly for pAkt”. For the same molecule, the “cell cycle progression versus untreated (in words)” value in the assay on C666.1 cells [4] is reported as “inducing G0/G1 cell cycle arrest”.

For the origin of these results see PMC6416395, “B1.12: a novel peptide interacting with the extracellular loop of the EBV oncoprotein LMP1” (Scientific Reports, 2019).
